Measured values from article PMC7530112 (European journal of medicinal chemistry, 2020).

Legend:
[1] = Microsomal stability assay, human liver microsomes; details: without Cobi; for Phase I metabolic stability t1/2, HLM: 1 μM compound, 0.5 mg/mL microsomal protein, NADPH
HIV-1NL4-3 = assay: Anti-HIV-1 assay in TZM-GFP cells; details: for Inhibition% at 2 μM: 2 μM compound; for Inhibition% at 20 μM: 20 μM compound; for fold higher antiviral potency than PF74: EC50 compared with PF74
[2] = Microsomal stability assay, mouse liver microsomes; details: without Cobi, 1 μM compound, 0.5 mg/mL microsomal protein, NADPH

Molecule | Inhibition% at 2 μM (HIV-1NL4-3) [%] | Inhibition% at 20 μM (HIV-1NL4-3) | further results
(S)-N-Methyl-2-(2-(naphthalen-1-yl)acetamido)-N,3-diphenylpropanamide [Compound 31] | 66 | 100% | Phase I metabolic stability t1/2, HLM [1]: 0.6 min; Phase I metabolic stability t1/2, MLM [2]: 0.5 min
(S)-N-(4-Chlorophenyl)-2-(2-(1,3-dimethyl-2,6-dioxo-1,2,3,6-tetrahydro-7H-purin-7-yl)acetamido)-N-methyl-3-phenylpropanamide [Compound 41] | 6 | 96% | –
2-(2-(2,5-Dioxo-3’,4’-dihydro-2’H-spiro[imidazolidine-4,1’-naphthalen]-1-yl)acetamido)-N,3-diphenylpropanamide [Compound 55] | – | −/22% | –
(S)-2-(2-(5-Hydroxy-1H-indol-3-yl)acetamido)-N-methyl-3-phenyl-N-(p-tolyl)propanamide [Compound 9] | – | – | fold higher antiviral potency than PF74 (HIV-1NL4-3): up to 20 fold
(S)-2-(2-(1,3-Dimethyl-2,6-dioxo-1,2,3,6-tetrahydro-7H-purin-7-yl)acetamido)-N-methyl-N,3-diphenylpropanamide [Compound 37] | 10 | 94% | fold improved half-life over PF74 in HLMs [1]: 7 to 10 fold; Phase I metabolic stability t1/2, HLM [1]: 4.7 min; Phase I metabolic stability t1/2, MLM [2]: 1.2 min
(2S)-2-(2-(4,7-Dimethyl-2-oxoindolin-3-yl)acetamido)-N-methyl-N,3-diphenylpropanamide [Compound 20] | – | – | Phase I metabolic stability t1/2, HLM [1]: 1.5 min; Phase I metabolic stability t1/2, MLM [2]: 0.6 min
2-(2-(2,4-Dioxo-1,3-diazaspiro[4.5]decan-3-yl)acetamido)-N-ethyl-N,3-diphenylpropanamide [Compound 53] | – | −/92% | –
(S)-N-(4-Chlorophenyl)-2-(2-(5-hydroxy-1H-indol-3-yl)acetamido)-N-methyl-3-phenylpropanamide [Compound 12] | – | – | fold higher antiviral potency than PF74 (HIV-1NL4-3): up to 20 fold
N-(3-Bromophenyl)-2-(2-(2,4-dioxo-1,3-diazaspiro[4.5]decan-3-yl)acetamido)-N-methyl-3-phenylpropanamide [Compound 52] | – | −/36% | –
2-(2-(2,5-Dioxo-3’,4’-dihydro-2’H-spiro[imidazolidine-4,1’-naphthalen]-1-yl)acetamido)-N-methyl-N,3-diphenylpropanamide [Compound 54] | – | −/32% | –
2-(2-(2,4-Dioxo-1,3-diazaspiro[4.5]decan-3-yl)acetamido)-N-methyl-N,3-diphenylpropanamide [Compound 44] | – | −/89% | –
(S)-N-(3-Chlorophenyl)-2-(2-(5-hydroxy-1H-indol-3-yl)acetamido)-N-methyl-3-phenylpropanamide [Compound 13] | – | – | fold potency drop on moving the Cl from 4 position to 3 (HIV-1NL4-3; compared with 4-Cl analog 12): 10 fold
CN(C(=O)C(Cc1ccccc1)NC(=O)CN1C(=O)NC2(CCCCC2)C1=O)c1ccc(F)cc1 (centres unmarked) [Compound 48, 2-(2-(2,4-Dioxo-1,3-diazaspiro[4.5]decan-3-yl)acetamido)-N-(4-fluorophenyl)-N-methyl-3-phenylpropanamide] | 9 | 99% | Phase I metabolic stability t1/2, HLM [1]: 1.1 min; Phase I metabolic stability t1/2, MLM [2]: 0.5 min
(S)-2-(2-(1,3-Dimethyl-2,6-dioxo-1,2,3,6-tetrahydro-7H-purin-7-yl)acetamido)-N-(4-fluorophenyl)-N-methyl-3-phenylpropanamide [Compound 39] | 14 | 85% | –
(2S)-N-(4-Chlorophenyl)-N-methyl-2-(2-(7-methyl-2-oxoindolin-3-yl)acetamido)-3-phenylpropanamide [Compound 17] | 17 | 96% | –
(S)-N-Ethyl-2-(2-(naphthalen-2-yl)acetamido)-N,3-diphenylpropanamide [Compound 30] | 46 | 97% | –
(S)-N-Ethyl-2-(2-(naphthalen-1-yl)acetamido)-N,3-diphenylpropanamide [Compound 36] | 53 | 98% | –
(S)-N-Methyl-2-(2-(naphthalen-2-yl)acetamido)-N,3-diphenylpropanamide [Compound 25] | 40 | 98% | Phase I metabolic stability t1/2, HLM [1]: 1.8 min; Phase I metabolic stability t1/2, MLM [2]: 0.5 min
2-(2-(2,4-Dioxo-1,3-diazaspiro[4.5]decan-3-yl)acetamido)-N-methyl-3-phenyl-N-(p-tolyl)propanamide [Compound 47] | – | −/92% | Phase I metabolic stability t1/2, HLM [1]: 3.3 min; Phase I metabolic stability t1/2, MLM [2]: 1.2 min
(S)-N-Methyl-2-(2-(naphthalen-1-yl)acetamido)-3-phenyl-N-(p-tolyl)propanamide [Compound 32] | 96 | 100% | –

Molecule | Inhibition% at 2 μM (HIV-1NL4-3) [%] | Inhibition% at 20 μM (HIV-1NL4-3) | further results
(S)-2-(2-(1,3-Dimethyl-2,6-dioxo-1,2,3,6-tetrahydro-7H-purin-7-yl)acetamido)-N-(3-fluorophenyl)-N-methyl-3-phenylpropanamide [Compound 40] | 1 | 67% | –
(S)-2-(2-(1,3-Dimethyl-2,6-dioxo-1,2,3,6-tetrahydro-7H-purin-7-yl)acetamido)-N-methyl-3-phenyl-N-(p-tolyl)propanamide [Compound 38] | 18 | 98% | –
2-(2-(2,4-Dioxo-1,3-diazaspiro[4.5]decan-3-yl)acetamido)-N,3-diphenylpropanamide [Compound 45] | – | −/0% | –
2-(2-(2,4-Dioxo-1,3-diazaspiro[4.5]decan-3-yl)acetamido)-N-(3-fluorophenyl)-N-methyl-3-phenylpropanamide [Compound 49] | 24 | 98% | –
(S)-N-Methyl-2-(2-(naphthalen-2-yl)acetamido)-3-phenyl-N-(p-tolyl)propanamide [Compound 26] | 80 | 99% | –
(S)-N-(4-Chlorophenyl)-2-(2-(5-methoxy-1H-indol-3-yl)acetamido)-N-methyl-3-phenylpropanamide [Compound 7] | – | – | Phase I metabolic stability t1/2, HLM [1]: 1.8 min; Phase I metabolic stability t1/2, MLM [2]: 0.6 min
COc1ccc(N(C)C(=O)C(Cc2ccccc2)NC(=O)CN2C(=O)NC3(CCCCC3)C2=O)cc1 (centres unmarked) [Compound 46, 2-(2-(2,4-Dioxo-1,3-diazaspiro[4.5]decan-3-yl)acetamido)-N-(4-methoxyphenyl)-N-methyl-3-phenylpropanamide] | – | −/93% | fold improved half-life over PF74 in HLMs [1]: 7 to 10 fold; Phase I metabolic stability t1/2, HLM [1]: 5.2 min; Phase I metabolic stability t1/2, MLM [2]: 0.7 min
(S)-N-(3-Chlorophenyl)-2-(2-(1,3-dimethyl-2,6-dioxo-1,2,3,6-tetrahydro-7H-purin-7-yl)acetamido)-N-methyl-3-phenylpropanamide [Compound 42] | 0 | 71% | –
(S)-2-(2-(5-Methoxy-1H-indol-3-yl)acetamido)-N-methyl-N,3-diphenylpropanamide [Compound 3] | – | – | Phase I metabolic stability t1/2, HLM [1]: 1.2 min; Phase I metabolic stability t1/2, MLM [2]: 0.5 min
2-(2-(2,5-Dioxo-3’,4’-dihydro-2’H-spiro[imidazolidine-4,1’-naphthalen]-1-yl)acetamido)-N-methyl-3-phenyl-N-(p-tolyl)propanamide [Compound 57] | – | −/41% | –
(2S)-N-Methyl-2-(2-(7-methyl-2-oxoindolin-3-yl)acetamido)-N,3-diphenylpropanamide [Compound 16] | 0 | 91% | fold improved half-life over PF74 in HLMs [1]: 7 to 10 fold; Phase I metabolic stability t1/2, HLM [1]: 7.0 min; Phase I metabolic stability t1/2, MLM [2]: 1 min
2-(2-(2,5-Dioxo-3’,4’-dihydro-2’H-spiro[imidazolidine-4,1’-naphthalen]-1-yl)acetamido)-N-(4-methoxyphenyl)-N-methyl-3-phenylpropanamide [Compound 56] | – | −/20% | –
(S)-2-(2-(1,3-Dimethyl-2,6-dioxo-1,2,3,6-tetrahydro-7H-purin-7-yl)acetamido)-N-ethyl-N,3-diphenylpropanamide [Compound 43] | 0 | 94% | –
(S)-N-(3-Chlorophenyl)-N-methyl-2-(2-(naphthalen-1-yl)acetamido)-3-phenylpropanamide [Compound 34] | 53 | 96% | –
(S)-N-(3-Fluorophenyl)-N-methyl-2-(2-(naphthalen-2-yl)acetamido)-3-phenylpropanamide [Compound 29] | 0 | 97% | –
(2S)-N-(3-Fluorophenyl)-N-methyl-2-(2-(7-methyl-2-oxoindolin-3-yl)acetamido)-3-phenylpropanamide [Compound 19] | 0 | 93% | –
N-(3-Chlorophenyl)-2-(2-(2,4-dioxo-1,3-diazaspiro[4.5]decan-3-yl)acetamido)-N-methyl-3-phenylpropanamide [Compound 51] | 9 | 98% | –
(S)-2-(2-(5-Hydroxy-1H-indol-3-yl)acetamido)-N-methyl-N,3-diphenylpropanamide [Compound 8] | – | – | fold higher antiviral potency than PF74 (HIV-1NL4-3): up to 20 fold
(S)-N-(3-Chlorophenyl)-N-methyl-2-(2-(naphthalen-2-yl)acetamido)-3-phenylpropanamide [Compound 28] | 0 | 94% | –
(S)-N-(3-Fluorophenyl)-N-methyl-2-(2-(naphthalen-1-yl)acetamido)-3-phenylpropanamide [Compound 35] | 44 | 97% | –
